{"source": "patent US20200345694A1", "about": "“ANTIAGING COMPOSITION COMPRISING CYTOCHALASIN D OR SAG, AND METHOD FOR SCREENING ANTIAGING SUBSTANCE” (AMOREPACIFIC CORPORATION, priority 2017, published 2020)", "key": {"[1]": {"tested_on": "Normal human neonatal dermal fibroblasts", "experiment": "Expression of primary cilia in skin cells (immunofluorescence staining with ARL13B and acetylated tubulin antibodies, confocal microscope)", "format": "cell-based", "settings": "48 hours, vs control group (FIG. 1)", "method": "Normal human neonatal dermal fibroblasts were plated in a Lab-Tex™ 2-well glass chamber slide (Thermo Scientific, Waltham, Mass., USA) with 0.5×10^5 cells per well. 24 hours later, the cells were treated with a test substance (1.5 mL of 0.2 μM cytochalasin D, or 1.5 mL of 2 μM SAG). 48 hours, the cells were immobilized and primary cilia were stained.\nThe primary cilia were stained with ARL13B (Proteintech) and a-acetylated tubulin (Sigma-Aldrich) antibodies. The cells were incubated overnight at 4° C. with ARL13B antibody diluted to 1/500 based on weight and a-acetylated tubulin antibody diluted to 1/1000 based on weight in a PBS buffer supplemented with 0.1% Triton™ X-100 and 5% normal goat serum. Then, the cells were treated at room temperature for 2 hours with Alexa Fluor 594 goat anti-mouse IgG and 488 goat anti-rabbit IgG (Invitrogen) as secondary antibodies. The nuclei were stained with DAPI and observed under a confocal microscope. The experiment was repeated at least twice for independent test groups."}, "[2]": {"tested_on": "normal human dermal fibroblasts", "experiment": "Procollagen I secreted to the medium of fibroblasts, measured by western blotting", "format": "cell-based", "settings": "48 hours, vs control group (FIG. 2)", "method": "It was investigated whether the increase in primary cilia leads to increased secretion of procollagen to the medium.\nSpecifically, normal human dermal fibroblasts were cultured in DMEM supplemented with 10% FBS (fetal bovine serum), 100 mg/L streptomycin and 100,000 U/L penicillin. The cultured fibroblasts seeded onto a 6-well plate with 1×10^5 cells per well and 1.5 mL of a medium containing 0.2 μM cytochalasin D or 2 pM SAG as a test substance was added 24 hours later. This leads to increased expression of primary cilia as in Test Example 1. 48 hours after the treatment with the test substance, the medium was collected and the amount of procollagen I in the medium was measured by western blotting. The procollagen I antibody was purchased from Developmental Studies Hybridoma Bank and diluted in a PBS buffer containing 0.1% Trito™ X-100 and 5% normal goat serum to 1/10000 based on weight. As a control group (loading control), electrophoresed polyacrylamide gel was stained with 0.05% Coomassie blue and then observed. The experiment was repeated at least twice for independent test groups."}}, "data": [{"smiles": "C=C1C(O)[C@@H]2/C=C/C[C@H](C)C(=O)[C@](C)(O)/C=C/[C@H](OC(C)=O)[C@]23C(=O)N[C@@H](Cc2ccccc2)[C@@H]3[C@@H]1C", "note": "(stereo partly shown) [cytochalasin D]", "values": [{"measurement": "primary cilia of fibroblasts", "setting": "[1]; 0.2 μM cytochalasin D", "value": "increased"}, {"measurement": "amount of procollagen in fibroblasts (procollagen I in the medium)", "setting": "[2]; 0.2 μM cytochalasin D", "value": "increased"}]}, {"smiles": "CN[C@H]1CC[C@H](N(Cc2cccc(-c3ccncc3)c2)C(=O)c2sc3ccccc3c2Cl)CC1", "note": "[SAG, 3-chloro-N-[trans-4-(methylamino)cyclohexyl]-N-[[3-(4-pyridinyl)phenyl]methyl]benzo[b]thiophene-2-carboxamide]", "values": [{"measurement": "primary cilia of fibroblasts", "setting": "[1]; 2 μM SAG", "value": "increased"}, {"measurement": "amount of procollagen in fibroblasts (procollagen I in the medium)", "setting": "[2]; 2 pM SAG (so in the source)", "value": "increased"}]}]}
